Data set [1] deals with T1, Human Neuropeptide Y2 Receptor (Homo sapiens, UniProt P49146).
T1 construct: purchased CHEMICON HTS066M
T1 sequence (P49146 1-381): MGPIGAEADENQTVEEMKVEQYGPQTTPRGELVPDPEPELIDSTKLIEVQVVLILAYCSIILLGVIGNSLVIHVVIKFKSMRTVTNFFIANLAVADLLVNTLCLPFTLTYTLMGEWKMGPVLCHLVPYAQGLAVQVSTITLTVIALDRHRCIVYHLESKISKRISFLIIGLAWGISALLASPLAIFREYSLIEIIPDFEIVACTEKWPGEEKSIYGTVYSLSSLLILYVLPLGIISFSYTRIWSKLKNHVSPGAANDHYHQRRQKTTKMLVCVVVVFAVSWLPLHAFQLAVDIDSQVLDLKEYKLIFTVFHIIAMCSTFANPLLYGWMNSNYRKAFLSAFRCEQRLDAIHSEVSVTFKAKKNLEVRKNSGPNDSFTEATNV
In words: Radioligand binding competition assay (RLB). As to conditions: Table 3, 125I-PYY(1-36) competition; read-out: Ki. An outline of the steps: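 Displacement of radioligand is measured after 2 h at room temperature with receptor membranes in Mg2+/Ca2+ HEPES buffer, pH 7.4. Filter-bound radioactivity is counted and IC50 obtained from curve fitting.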

Data set [2] is described as follows: Solubility determination. As to conditions: for Sol6: pH 6; for Sol7: pH 7. An outline of the steps: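 Sample: TFA-salt peptide at 10 mg/ml target in 0.1 M Na diphosphate, pH 6.4 or 7.0, shaken 2 h RT, filtered, diluted to 1 mg/ml.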

Broadly, the Ki is the equilibrium dissociation constant of an inhibitor or competing ligand from its target. Regarding `CC[C@H](C)[C@H](NC(=O)[C@H](CCC(=O)O)NC(=O)[C@H](CCC(=O)O)NC(=O)[C@@H]1CCCN1C(=O)[C@H](CC(C)C)NC(=O)[C@H](C)NC(=O)[C@H](CC(=O)O)NC(=O)[C@H](CCC(=O)O)NC(=O)[C@H](CCC(=O)O)NC(=O)[C@@H]1CCCN1C(=O)[C@H](CCCCNC(=O)CCCCCNC(=O)CC[C@H](NC(=O)CCCCCCCCCCCCCCCCC(=O)O)C(=O)O)NC(=O)[C@H](CCC(=O)O)NC(=O)[C@@H]1CCCN1C(=O)[C@H](C)NC(=O)CC(C)C)C(=O)N[C@@H](CCC(N)=O)C(=O)N[C@@H](CCCNC(=N)N)C(=O)N[C@@H](Cc1ccc(O)cc1)C(=O)N[C@@H](Cc1ccc(O)cc1)C(=O)N[C@H](C(=O)N[C@@H](CO)C(=O)N[C@@H](CC(C)C)C(=O)N[C@@H](CCCNC(=N)N)C(=O)N[C@@H](Cc1c[nH]cn1)C(=O)N[C@@H](Cc1ccc(O)cc1)C(=O)N[C@@H](Cc1ccc(O)cc1)C(=O)N[C@@H](CC(N)=O)C(=O)N[C@@H](Cc1c[nH]c2ccccc12)C(=O)N[C@@H](CC(C)C)C(=O)N[C@H](C(=O)N[C@@H](CCCNC(=N)N)C(=O)N[C@@H](CCC(N)=O)C(=O)N[C@@H](CCCNC(=N)N)C(=O)N[C@@H](Cc1ccc(O)cc1)C(N)=O)[C@@H](C)O)C(C)C` [Compound 142, N{alpha-4}-(3-methylbutanoyl)-N{epsilon-7}-(6-[(4S)-4-carboxy-4-(17-carboxyheptadecanamido)butanamido]hexanoyl)-[4A,7K,9E,13L,17I,18Q,22V,28Y,30W,31L]-hPYY(4-36)], the Ki in data set [1] turned out to be 3.97 nM. For the same compound, in data set [2], the “Sol6” value is more than 10.0 mg/mL and the “Sol7” value is more than 10.0 mg/mL.
For `CC(C)CC(=O)N[C@@H](C)C(=O)N1CCC[C@H]1C(=O)N[C@@H](CCC(=O)O)C(=O)N[C@@H](CCCCNC(=O)CCCCCNC(=O)CC[C@H](NC(=O)CCCCCCCCCCCCCCCCC(=O)O)C(=O)O)C(=O)N1CCC[C@H]1C(=O)N[C@@H](CCC(=O)O)C(=O)N[C@@H](CCC(=O)O)C(=O)N[C@@H](CC(=O)O)C(=O)N[C@@H](CO)C(=O)N[C@H](C(=O)N1CCC[C@H]1C(=O)N[C@@H](CCC(=O)O)C(=O)N[C@@H](CCC(=O)O)C(=O)N[C@@H](CC(C)C)C(=O)N[C@@H](CCC(N)=O)C(=O)N[C@@H](CCCNC(=N)N)C(=O)N[C@@H](Cc1ccc(O)cc1)C(=O)N[C@@H](Cc1ccc(O)cc1)C(=O)N[C@H](C(=O)N[C@@H](CO)C(=O)N[C@@H](CC(C)C)C(=O)N[C@@H](CCCNC(=N)N)C(=O)N[C@@H](Cc1c[nH]cn1)C(=O)N[C@@H](Cc1ccc(O)cc1)C(=O)N[C@@H](Cc1ccc(O)cc1)C(=O)N[C@@H](CC(N)=O)C(=O)N[C@@H](Cc1c[nH]c2ccccc12)C(=O)N[C@@H](CC(C)C)C(=O)N[C@H](C(=O)N[C@@H](CCCNC(=N)N)C(=O)N[C@@H](CCC(N)=O)C(=O)N[C@@H](CCCNC(=N)N)C(=O)N[C@@H](Cc1ccc(O)cc1)C(N)=O)[C@@H](C)O)C(C)C)[C@@H](C)O` [Compound 143, N{alpha-4}-(3-methylbutanoyl)-N{epsilon-7}-(6-[(4S)-4-carboxy-4-(17-carboxyheptadecanamido)butanamido]hexanoyl)-[4A,7K,9E,12S,13T,18Q,22V,28Y,30W,31L]-hPYY(4-36)], the Ki in data set [1] came to 3.42 nM. Moreover, in data set [2], the “Sol6” value came out at 10.0 mg/mL and the “Sol7” value was more than 10.0 mg/mL.

The record behind these values is patent US12391737B2, “Soluble NPY2 receptor agonists” (Boehringer Ingelheim International GmbH, priority 2020, dated 2025).
